Source: patent US9226950B2, “Method and composition for treating diabetes mellitus” (National Dong Hwa University, priority 2013, dated 2016)

Experiments:
AKT = assay: Phosphorylation of AKT on Thr308 in L6 cells, Western blot; format: cell-based, rat; settings: 10 μM insulin (Ins) alone, 30 min, FIG. 1(b)
Procedure: (§1) […] muscle myoblast cells (L6) was a generous gift from Professor Hitoshi Ashida's Lab. (Kobe University, Kobe, Japan). The cells were grown and maintained in α-minimal essential medium (α-MEM, 12000022, GIBCO, CA, USA) containing 10% fetal bovine serum (FBS, GIBCO) and 1% penicillin streptomycin (GIBCO) in a cell culture incubator with 5% CO2 at 37° C. Prior to the following experiments, the cells were seeded and cultured at a density of 8×10^3 cells per well in 96-well plates or 2.5×10^5 cells per well in 6-well plates. After the myoblasts achieved 80% confluence, the cells were incubated for 5 days in the α-MEM supplemented with 2% FBS to induce differentiation to myotubes.
The L6 cells were fully differentiated with α-MEM supplemented with 2% FBS for 5 days to myotubes. The cells were washed twice with PBS containing 0.1% BSA and subsequently incubated α-MEM containing 0.25% BSA with or without 100 nM of S961, and then treated with or without 100 μM of Tetracosanol for 90 min. Then, the cells were treated with or without 10 μM of insulin for 30 min. Finally, the cells were collected and washed twice in KRH buffer, then lysed in ice-cold RIPA buffer for 60 min. After centrifugation at 12,000×g for 30 min. at 4° C., the supernatant was kept at −80° C. until use. The levels of the proteins including phospho-AKT (Thr308), AKT, phospho-AMPK (Thr172), and AMPK (Cell Signaling) were detected and evaluated by Western blot with primary antibody.
(§2) The cells after treatments were collected and washed twice in cold KRH buffer, and then lysed in ice-cold RIPA buffer incubation at 4° C. for 60 min. After centrifugation at 12,000×g for 30 min at 4° C., the supernatant was kept and quantified by Bradford protein assay (Bio-Rad, Hercules, Calif., USA). The proteins were separated using sodium dodecyl sulfate polyacrylamide gel electrophoresis (SDS-PAGE) and subsequently transferred to PVDF (Perkin Elmer Life Sciences, Boston, Mass., USA) membrane. […] The signals were monitored using Western Lightning™ Plus-ECL (Perkin Elmer Life Sciences) and the PVDF membrane was exposed to Luminescent image analyzer (LAS)-3000 (Fujifilm, Minato, Tokyo, Japan). Acquired data were analyzed and compared the difference among treatments.
The differentiated L6 cells were incubated with 100 μM of tetracosanol (Tet) at 37° C. for 90 min, and then treated 10 μM of insulin (Ins) at 37° C. for 5 or 30 min. The cell lysates were separated by SDS-PAGE and blotted 5 min for phospho-Insr on Tyr1158, 1162, and 1163 (Insr, 100 kDa), and phospho-AKT on Thr308 protein level was measured at 30 min in Western blot analysis.

Insr = molecular target: T1, Insr (Rattus norvegicus, UniProt P15127); assay: Phosphorylation of insulin receptors (Tyr1158/Tyr1162/Tyr1163) in L6 cells, Western blot; format: cell-based; settings: 10 μM insulin (Ins) alone, 5 min, FIG. 1(a)
T1 construct: L6 cells were fully differentiated with α-MEM supplemented with 2% FBS for 5 days to myotubes; endogenous in cells; host or cells: L6 myoblasts differentiated to myotubes
Procedure: as §1
L6 cells were fully differentiated with α-MEM supplemented with 2% FBS for 5 days to myotubes. The cells were washed twice with Phosphate Buffered Saline (PBS) containing 0.1% BSA and subsequently incubated α-MEM containing 0.25% BSA with or without 100 nM of S961, and treated with or without 100 μM of Tetracosanol for 90 min. Then, the cells were treated with or without 10 μM of insulin for 5 min. […] The levels of the proteins including phospho-Insulin receptors (Tyr1158/Tyr1162/Tyr1163) and Insulin receptor (Cell Signaling, Boston, Mass., USA) were detected and evaluated by Western blot with primary antibody.
as §2, with “USA).” for “USA). The proteins were separated using sodium dodecyl sulfate polyacrylamide gel electrophoresis (SDS-PAGE) and subsequently transferred to PVDF (Perkin Elmer Life Sciences, Boston, Mass., USA) membrane.”, “treatments. […]” for “treatments.”

T1 sequence (P15127 27-759 limits assumed): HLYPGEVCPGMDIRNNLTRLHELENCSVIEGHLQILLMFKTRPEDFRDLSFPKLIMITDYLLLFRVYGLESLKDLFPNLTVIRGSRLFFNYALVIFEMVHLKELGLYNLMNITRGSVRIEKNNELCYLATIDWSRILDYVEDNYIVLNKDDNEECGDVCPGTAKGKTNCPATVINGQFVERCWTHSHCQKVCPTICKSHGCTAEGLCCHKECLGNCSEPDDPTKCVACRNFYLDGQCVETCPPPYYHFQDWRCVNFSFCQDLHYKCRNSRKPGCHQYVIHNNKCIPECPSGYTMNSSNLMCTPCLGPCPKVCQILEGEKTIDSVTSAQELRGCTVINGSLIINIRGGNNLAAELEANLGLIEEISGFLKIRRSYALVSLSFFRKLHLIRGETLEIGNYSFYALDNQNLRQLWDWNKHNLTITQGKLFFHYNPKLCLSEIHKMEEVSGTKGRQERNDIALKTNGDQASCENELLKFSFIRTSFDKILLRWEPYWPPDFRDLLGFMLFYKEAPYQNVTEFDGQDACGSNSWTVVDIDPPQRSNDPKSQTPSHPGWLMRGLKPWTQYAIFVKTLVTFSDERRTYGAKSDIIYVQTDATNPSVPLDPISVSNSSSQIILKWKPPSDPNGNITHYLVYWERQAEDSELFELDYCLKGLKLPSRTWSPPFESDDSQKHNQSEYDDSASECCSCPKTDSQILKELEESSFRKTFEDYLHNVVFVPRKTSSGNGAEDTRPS
T1 sequence (P15127 764-1383 limits assumed): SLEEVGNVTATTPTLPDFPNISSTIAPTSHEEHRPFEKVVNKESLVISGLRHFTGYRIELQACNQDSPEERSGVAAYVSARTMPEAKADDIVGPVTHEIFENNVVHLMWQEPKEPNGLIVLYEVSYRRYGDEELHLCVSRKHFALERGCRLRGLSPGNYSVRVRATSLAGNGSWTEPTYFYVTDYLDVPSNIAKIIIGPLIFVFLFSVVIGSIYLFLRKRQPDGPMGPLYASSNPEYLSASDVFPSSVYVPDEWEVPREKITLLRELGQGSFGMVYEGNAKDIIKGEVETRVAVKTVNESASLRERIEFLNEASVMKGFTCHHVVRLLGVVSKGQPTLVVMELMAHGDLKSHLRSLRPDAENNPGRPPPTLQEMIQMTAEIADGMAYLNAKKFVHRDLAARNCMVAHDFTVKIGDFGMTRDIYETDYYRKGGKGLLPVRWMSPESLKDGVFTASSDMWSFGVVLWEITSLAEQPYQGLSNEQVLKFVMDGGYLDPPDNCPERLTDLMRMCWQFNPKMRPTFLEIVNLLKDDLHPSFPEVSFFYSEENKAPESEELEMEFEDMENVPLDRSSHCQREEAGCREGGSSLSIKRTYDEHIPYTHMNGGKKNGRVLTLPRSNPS

phosphorylation of phospho-Insr on Tyr1158, 1162, and 1163 (Insr): tended to be enhanced
Substance: insulin: Insulin purchased from Novo-Nordisk [reference compound]
phospho-AKT on Thr 308 (AKT): induced the phospho-AKT on Thr 308
